Laboratory results as given in publication PMC4475474 (Journal of biomolecular screening, 2015).
Like-named read-outs stand apart in the source and are kept apart here.

Target: Full-length human SAMHD1 (Homo sapiens, UniProt Q9Y3Z3)
Experiment: Enzyme-coupled malachite green
Type: biochemical
Conditions: for SAMHD1 inhibition (in words): MG assay dose-response curves; for Hill slope h: variable Hill slope fit (eq 2)

Full-length human SAMHD1, sequence (Q9Y3Z3 whole entry): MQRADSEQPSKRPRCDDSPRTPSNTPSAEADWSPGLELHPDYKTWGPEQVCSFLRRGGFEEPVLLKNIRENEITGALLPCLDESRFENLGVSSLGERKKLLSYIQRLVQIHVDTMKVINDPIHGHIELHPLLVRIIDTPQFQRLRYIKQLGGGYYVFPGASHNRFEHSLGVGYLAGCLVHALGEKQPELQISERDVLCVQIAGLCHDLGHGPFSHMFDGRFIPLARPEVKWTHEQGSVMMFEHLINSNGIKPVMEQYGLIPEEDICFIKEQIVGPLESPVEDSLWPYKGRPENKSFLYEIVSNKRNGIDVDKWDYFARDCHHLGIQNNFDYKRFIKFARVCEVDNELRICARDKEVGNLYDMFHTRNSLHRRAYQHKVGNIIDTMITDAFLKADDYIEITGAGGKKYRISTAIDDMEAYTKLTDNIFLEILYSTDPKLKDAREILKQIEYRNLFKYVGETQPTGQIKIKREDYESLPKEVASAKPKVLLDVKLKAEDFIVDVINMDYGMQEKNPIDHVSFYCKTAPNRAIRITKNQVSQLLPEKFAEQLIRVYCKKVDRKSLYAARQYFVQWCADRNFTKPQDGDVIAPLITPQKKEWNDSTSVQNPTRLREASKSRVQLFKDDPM

Compound	SAMHD1 inhibition (in words)	further results
Nc1ccn([C@H]2C[C@H](O)[C@@H](CO)O2)c(=O)n1 [dCyt, deoxycytosine]	only dGuo showed significant inhibition	
Nc1ncnc2c1ncn2[C@H]1C[C@H](O)[C@@H](CO)O1 [dAdo, deoxyadenosine]	only dGuo showed significant inhibition	
Nc1nc2c(ncn2[C@H]2CC[C@@H](CO)O2)c(=O)[nH]1 [ddGuo]	significantly weaker inhibition	
Nc1nc2c(ncn2[C@H]2C[C@H](O)[C@@H](CO)O2)c(=O)[nH]1 [dGuo, deoxyguanosine]	significant inhibition	IC50: 488 ± 50 µM
Cc1cn([C@H]2C[C@H](O)[C@@H](CO)O2)c(=O)[nH]c1=O [dThy, deoxythymidine]	only dGuo showed significant inhibition	
Nc1nc2c(ncn2[C@@H]2O[C@H](CO)[C@@H](O)[C@H]2O)c(=O)[nH]1 [rGuo]	significantly weaker inhibition	
[Cl-].[Cl-].[Zn+2] [Zn^2+]		Hill slope h (MG assay dose-response): 1.2 ± 0.1; IC50 (MG assay dose-response, 0.5 μM SAMHD1, 5 μM PPase, 0.1 mM dGTP, 5 mM MgCl2): 2.1 ± 0.2 µM; inhibition after addition of EDTA (approximately stoichiometric amounts of EDTA added): completely rescued
O=c1ccn([C@H]2C[C@H](O)[C@@H](CO)O2)c(=O)[nH]1 [dUrd, deoxyuridine]	only dGuo showed significant inhibition	
O=c1[nH]cnc2c1ncn2[C@H]1C[C@H](O)[C@@H](CO)O1 [dIno]	significantly less inhibitory	
CC(=O)OCC1=C(C(=O)O)N2C(=O)[C@@H](NC(=O)CCC[C@@H](N)C(=O)O)[C@H]2SC1 [Ceph C, cephalosporin C]	weakly inhibitory	
CC(=O)OCC1=C(C(=O)O)N2C(=O)[C@@H](NC(=O)CCC[C@@H](N)C(=O)O)[C@H]2SC1 [CC-Zn, cephalosporin C]		Hill slope h (MG assay dose-response): 1.4 ± 0.1; fold more potent inhibitor (Zn2+ salt vs sodium salt of Ceph C) (ratio of IC50 values of the two salt forms): 200 fold
